Target: human orexin 2 receptor (Homo sapiens (Human), UniProt O43614)
Assay: Human orexin 2 receptor radioligand binding ([3H]EMPA competition, HEK293 cells)
Conditions: HEK293 cells expressing human orexin-2 receptor, read-out: OR 2 Ki

Sequence of human orexin 2 receptor (O43614 whole entry): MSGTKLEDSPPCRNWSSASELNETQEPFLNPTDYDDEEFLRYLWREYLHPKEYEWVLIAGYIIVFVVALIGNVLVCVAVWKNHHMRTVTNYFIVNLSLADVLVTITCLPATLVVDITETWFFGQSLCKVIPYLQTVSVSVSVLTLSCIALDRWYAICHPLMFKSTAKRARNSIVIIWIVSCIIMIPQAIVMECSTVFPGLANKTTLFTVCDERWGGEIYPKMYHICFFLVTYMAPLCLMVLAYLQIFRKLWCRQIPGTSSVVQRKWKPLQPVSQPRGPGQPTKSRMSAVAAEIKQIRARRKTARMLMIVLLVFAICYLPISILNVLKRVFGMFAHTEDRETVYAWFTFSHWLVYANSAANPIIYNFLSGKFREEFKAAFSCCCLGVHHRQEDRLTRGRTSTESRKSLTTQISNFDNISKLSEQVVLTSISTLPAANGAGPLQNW

With `Cc1nc(N(C)C)cc(N2CC3CN(C(=O)c4cccc(F)c4-c4ncccn4)CC3C2)n1` (centres unmarked) [Example 427, 6-{5-[(3-Fluoro-2-pyrimidin-2-ylphenyl)carbonyl]hexahydropyrrolo[3,4-c]pyrrol-2(1H)-yl}-N, N,2-trimethylpyrimidin-4-amine] as the compound, how does the Ki read?
Its Ki is 79 nM.

For `Cc1ccc(-c2ncccn2)c(C(=O)N2CC3CN(c4cc(N(C)C)nc(C)n4)CC3C2)n1` (centres unmarked) [Example 428, N,N,2-Trimethyl-6-{5-[(6-methyl-3-pyrimidin-2-ylpyridin-2-yl)carbonyl]hexahydropyrrolo[3,4-c]pyrrol-2(1H)-yl}pyrimidin-4-amine], which Ki is on record?
The Ki was 244 nM.

Which Ki does the source give for `Cc1ccc(-c2ncc(C)o2)c(C(=O)N2CC3CN(c4cc(N(C)C)nc(C)n4)CC3C2)n1` (centres unmarked) [Example 429, N,N,2-Trimethyl-6-[5-{[6-methyl-3-(5-methyl-1,3-oxazol-2-yl)pyridin-2-yl]carbonyl}hexahydropyrrolo[3,4-c]pyrrol-2(1H)-yl]pyrimidin-4-amine] here?
Its Ki is 764 nM.

With `CCCOc1ccc(C)cc1C(=O)N1CC2CN(c3cc(N(C)C)nc(C)n3)CC2C1` (centres unmarked) [Example 430, N,N,2-Trimethyl-6-{5-[(5-methyl-2-propoxyphenyl)carbonyl]hexahydropyrrolo[3,4-c]pyrrol-2(1H)-yl}pyrimidin-4-amine] as the compound, how does the Ki read?
The Ki was 270 nM.

Which Ki does the source give for `[2H]c1c(C([2H])([2H])[2H])nc(N2CC3CN(C(=O)c4cccc(F)c4-c4ncccn4)CC3C2)nc1C([2H])([2H])[2H]` (centres unmarked) [Example 431, 2-{4,6-Bis[(^2H3)methyl](^2H)pyrimidin-2-yl}-5-[(3-fluoro-2-pyrimidin-2-ylphenyl)carbonyl]octahydropyrrolo[3,4-c]pyrrole] here?
Its Ki is 18 nM.

With `Cc1cc(C)nc(N2CC3CN(C(=O)c4cccc(F)c4-c4nnc[nH]4)CC3C2)n1` (centres unmarked) [Example 432, 2-(4,6-Dimethylpyrimidin-2-yl)-5-{[3-fluoro-2-(1H-1,2,4-triazol-5-yl)phenyl]carbonyl}octahydropyrrolo[3,4-c]pyrrole] as the compound, how does the Ki read?
Its Ki is 23 nM.

With `Cc1cc(C)nc(N2CC3CN(C(=O)c4ccccc4-c4cn(Cc5ccccc5)nn4)CC3C2)n1` (centres unmarked) [Example 434, 2-{[2-(1-Benzyl-1H-1,2,3-triazol-4-yl)phenyl]carbonyl}-5-(4,6-dimethylpyrimidin-2-yl)octahydropyrrolo[3,4-c]pyrrole] as the compound, how does the Ki read?
Its Ki is 394 nM.

For `COc1ccc(C(=O)N2CC3CN(c4nc(C)cc(CO)n4)CC3C2)c(-n2nccn2)c1` (centres unmarked) [Example 435, {2-[5-{[4-Methoxy-2-(2H-1,2,3-triazol-2-yl)phenyl]carbonyl}hexahydropyrrolo[3,4-c]pyrrol-2(1H)-yl]-6-methylpyrimidin-4-yl}methanol], which Ki is on record?
The Ki was 24 nM.

Which Ki does the source give for `Cc1cc(CO)nc(N2CC3CN(C(=O)c4cccc(F)c4-c4nc(C)no4)CC3C2)n1` (centres unmarked) [Example 436, {2-[5-{[3-Fluoro-2-(3-methyl-1,2,4-oxadiazol-5-yl)phenyl]carbonyl}hexahydropyrrolo[3,4-c]pyrrol-2(1H)-yl]-6-methylpyrimidin-4-yl}methanol] here?
The Ki was 21 nM.

With `Cc1cc(C)nc(N2CC3CN(C(=O)c4c(F)cccc4-c4nnc[nH]4)CC3C2)n1` (centres unmarked) [Example 437, 2-(4,6-Dimethylpyrimidin-2-yl)-5-{[2-fluoro-6-(1H-1,2,4-triazol-5-yl)phenyl]carbonyl}octahydropyrrolo[3,4-c]pyrrole] as the compound, how does the Ki read?
Its Ki is 270 nM.

How did the Ki turn out when `Cc1cc(C)nc(N2CC3CN(C(=O)c4nc(C)ccc4-n4ccnn4)CC3C2)n1` (centres unmarked) [Example 439, 2-(4,6-Dimethylpyrimidin-2-yl)-5-{[6-methyl-3-(1H-1,2,3-triazol-1-yl)pyridin-2-yl]carbonyl}octahydropyrrolo[3,4-c]pyrrole] was run?
The Ki was 10000 nM.

Which Ki does the source give for `Cc1nc(N2CC3CN(C(=O)c4ncc(Cl)cc4-n4nccn4)CC3C2)nc(C)c1C` (centres unmarked) [Example 442, 2-{[5-Chloro-3-(2H-1,2,3-triazol-2-yl)pyridin-2-yl]carbonyl}-5-(4,5,6-trimethylpyrimidin-2-yl)octahydropyrrolo[3,4-c]pyrrole] here?
The Ki was 26 nM.

`COc1cnc(C(=O)N2CC3CN(c4nc(C)c(C)c(C)n4)CC3C2)c(-n2nccn2)c1` (centres unmarked) [Example 444, 2-{[5-Methoxy-3-(2H-1,2,3-triazol-2-yl)pyridin-2-yl]carbonyl}-5-(4,5,6-trimethylpyrimidin-2-yl)octahydropyrrolo[3,4-c]pyrrole] was tested. Which Ki did it give?
The Ki was 20 nM.

With `Cc1ccc(-c2ncccn2)c(C(=O)N2CC3CN(c4nc(C)c(C)c(C)n4)CC3C2)n1` (centres unmarked) [Example 445, 2-[(6-Methyl-3-pyrimidin-2-ylpyridin-2-yl)carbonyl]-5-(4,5,6-trimethylpyrimidin-2-yl)octahydropyrrolo[3,4-c]pyrrole] as the compound, how does the Ki read?
Its Ki is 27 nM.

For `Cc1cc(C)nc(N2CC3CN(C(=O)c4ccc(OC(F)F)cc4-n4nccn4)CC3C2)n1` (centres unmarked) [Example 446, 2-{[4-(Difluoromethoxy)-2-(2H-1,2,3-triazol-2-yl)phenyl]carbonyl}-5-(4,6-dimethylpyrimidin-2-yl)octahydropyrrolo[3,4-c]pyrrole], which Ki is on record?
The Ki was 72 nM.

For `CCOc1ncccc1C(=O)N1CC2CN(c3cnc4cc(F)c(F)cc4n3)CC2C1` (centres unmarked) [Example 447, 2-{5-[(2-Ethoxypyridin-3 yl)carbonyl]hexahydropyrrolo[3,4-c]pyrrol-2(1H)-yl}-6,7-difluoroquinoxaline], which Ki is on record?
The Ki was 580 nM.

With `CCOc1ncccc1C(=O)N1CC2CN(c3ncc4cc(F)ccc4n3)CC2C1` (centres unmarked) [Example 448, 2-{5-[(2-Ethoxypyridin-3-yl)carbonyl]hexahydropyrrolo[3,4-c]pyrrol-2(1H)-yl}-6-fluoroquinazoline] as the compound, how does the Ki read?
Its Ki is 340 nM.

How did the Ki turn out when `O=C(c1cccc(F)c1I)N1CC2CN(c3cnc4cc(F)c(F)cc4n3)CC2C1` (centres unmarked) [Example 449, 6,7-Difluoro-2-{5-[(3-fluoro-2-iodophenyl)carbonyl]hexahydropyrrolo[3,4-c]pyrrol-2(1H)-yl}quinoxaline] was run?
The Ki was 160 nM.

`O=C(c1cccc(F)c1-c1ncccc1F)N1CC2CN(c3cnc4cc(F)c(F)cc4n3)CC2C1` (centres unmarked) [Example 450, 6,7-Difluoro-2-[5-{[3-fluoro-2-(3-fluoropyridin-2-yl)phenyl]carbonyl}hexahydropyrrolo[3,4-c]pyrrol-2(1H)-yl]quinoxaline] was tested. Which Ki did it give?
Its Ki is 36 nM.

How did the Ki turn out when `O=C(c1cccc(F)c1-c1ncco1)N1CC2CN(c3cnc4cc(F)c(F)cc4n3)CC2C1` (centres unmarked) [Example 451, 6,7-Difluoro-2-[5-{[3-fluoro-2-(1,3-oxazol-2-yl)phenyl]carbonyl}hexahydropyrrolo[3,4-c]pyrrol-2(1H)-yl]quinoxaline] was run?
Its Ki is 29 nM.

How did the Ki turn out when `O=C(c1cccc(F)c1-c1ccccn1)N1CC2CN(c3cnc4cc(F)c(F)cc4n3)CC2C1` (centres unmarked) [Example 452, 6,7-Difluoro-2-{5-[(3-fluoro-2-pyridin-2-ylphenyl)carbonyl]hexahydropyrrolo[3,4-c]pyrrol-2(1H)-yl}quinoxaline] was run?
Its Ki is 26 nM.

How did the Ki turn out when `COc1cccnc1-c1c(F)cccc1C(=O)N1CC2CN(c3cnc4cc(F)c(F)cc4n3)CC2C1` (centres unmarked) [Example 453, 6,7-Difluoro-2-[5-{[3-fluoro-2-(3-methoxypyridin-2-yl)phenyl]carbonyl}hexahydropyrrolo[3,4-c]pyrrol-2(1H)-yl]quinoxaline] was run?
Its Ki is 47 nM.

Which Ki does the source give for `O=C(c1cccc(F)c1-c1cncs1)N1CC2CN(c3cnc4cc(F)c(F)cc4n3)CC2C1` (centres unmarked) [Example 454, 6,7-Difluoro-2-[5-{[3-fluoro-2-(1,3-thiazol-5-yl)phenyl]carbonyl}hexahydropyrrolo[3,4-c]pyrrol-2(1H)-yl]quinoxaline] here?
The Ki was 72 nM.

From patent US9586962B2, “Disubstituted octahydropyrrolo [3,4-C] pyrroles as orexin receptor modulators” (Janssen Pharmaceutica NV, priority 2011, dated 2017)
